Assay results published in PubChem BioAssay (NCI).
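The compound was tested at five concentrations on cells cultured in 96-well plates, with a 48-hour exposure period. At the GI50, growth is halved. TGI: concentration producing complete growth inhibition.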

Experiments:
Test in all cases: NCI tumour cell line growth inhibition, 48 h
[1] = system: HT29 colon
[2] = system: SK-MEL-28 melanoma
[3] = system: UO-31 renal
[4] = system: NCI-H522 lung
[5] = system: MCF7 breast
[6] = system: SK-MEL-2 melanoma
[7] = system: U251 CNS
[8] = system: HL-60(TB) leukemia
[9] = system: RPMI-8226 leukemia
[10] = system: HCC-2998 colon
[11] = system: TK-10 renal
[12] = system: T-47D breast
[13] = system: HOP-92 NSCLC
[14] = system: MDA-MB-231 breast
[15] = system: PC-3 prostate
[16] = system: SF-539 CNS
[17] = system: SK-MEL-5 melanoma
[18] = system: NCI/ADR-RES ovarian
[19] = system: EKVX NSCLC
[20] = system: SN12C renal
[21] = system: UACC-62 melanoma
[22] = system: MDA-MB-435
[23] = system: OVCAR-5 ovarian
[24] = system: HOP-62 NSCLC
[25] = system: MALME-3M melanoma
[26] = system: HS 578T breast
[27] = system: SNB-19 CNS
[28] = system: SF-295 CNS
[29] = system: OVCAR-4 ovarian
[30] = system: DU-145 prostate
[31] = system: NCI-H226 lung
[32] = system: ACHN renal
[33] = system: M14 melanoma
[34] = system: NCI-H460 lung
[35] = system: KM12 colon
[36] = system: HCT-116 colon
[37] = system: CCRF-CEM leukemia
[38] = system: MOLT-4 leukemia
[39] = system: IGROV1 ovarian
[40] = system: SNB-75 CNS
[41] = system: K-562 leukemia
[42] = system: SK-OV-3 ovarian
[43] = system: A549 NSCLC
[44] = system: SW-620 colon
[45] = system: A498 renal
[46] = system: LOX IMVI melanoma
[47] = system: NCI-H23 lung
[48] = system: HCT-15 colon
[49] = system: OVCAR-3 ovarian
[50] = system: BT-549 breast
[51] = system: COLO 205 colon
[52] = system: OVCAR-8 ovarian
[53] = system: CAKI-1 renal
[54] = system: RXF 393 renal
[55] = system: SF-268 CNS
[56] = system: 786-0 renal
[57] = system: UACC-257 melanoma
[58] = system: SR leukemia

COc1ccc(C(c2ccc(OCCN(C)C)cc2)c2cc3ccccc3c3ccccc23)cc1 (stereo unspecified)
GI50 [1]: 1.6 µM
TGI [1]: 3.1 µM
GI50 [2]: 1.63 µM
TGI [2]: 3.11 µM
GI50 [3]: 1.49 µM
TGI [3]: 2.9 µM
GI50 [4]: 1.55 µM
TGI [4]: 2.98 µM
GI50 [5]: 1.81 µM
TGI [5]: 3.61 µM
GI50 [6]: 1.54 µM
TGI [6]: 2.97 µM
GI50 [7]: 1.57 µM
TGI [7]: 2.92 µM
GI50 [8]: 1.89 µM
TGI [8]: 3.75 µM
GI50 [9]: 1.93 µM
TGI [9]: 4.25 µM
GI50 [10]: 1.8 µM
TGI [10]: 3.34 µM
GI50 [11]: 1.64 µM
TGI [11]: 3.1 µM
GI50 [12]: 1.47 µM
TGI [12]: 3.12 µM
GI50 [13]: 1.31 µM
TGI [13]: 2.64 µM
GI50 [14]: 1.68 µM
TGI [14]: 3.22 µM
GI50 [15]: 1.76 µM
TGI [15]: 3.5 µM
GI50 [16]: 1.7 µM
TGI [16]: 3.13 µM
GI50 [17]: 1.69 µM
TGI [17]: 3.11 µM
GI50 [18]: 1.71 µM
TGI [18]: 3.39 µM
GI50 [19]: 1.59 µM
TGI [19]: 3.3 µM
GI50 [20]: 1.74 µM
TGI [20]: 3.25 µM
GI50 [21]: 1.81 µM
TGI [21]: 3.52 µM
GI50 [22]: 1.71 µM
TGI [22]: 3.14 µM
GI50 [23]: 1.56 µM
TGI [23]: 3.27 µM
GI50 [24]: 1.54 µM
TGI [24]: 3.07 µM
GI50 [25]: 1.55 µM
TGI [25]: 3.12 µM
GI50 [26]: 1.66 µM
TGI [26]: 3.62 µM
GI50 [27]: 1.72 µM
TGI [27]: 3.31 µM
GI50 [28]: 1.77 µM
TGI [28]: 3.33 µM
GI50 [29]: 1.78 µM
TGI [29]: 3.39 µM
GI50 [30]: 1.77 µM
TGI [30]: 3.37 µM
GI50 [31]: 3.43 µM
TGI [31]: 15.4 µM
GI50 [32]: 1.7 µM
TGI [32]: 3.13 µM
GI50 [33]: 1.73 µM
TGI [33]: 3.25 µM
GI50 [34]: 1.79 µM
TGI [34]: 3.29 µM
GI50 [35]: 1.8 µM
TGI [35]: 3.39 µM
GI50 [36]: 1.68 µM
TGI [36]: 3.14 µM
GI50 [37]: 1.8 µM
TGI [37]: 3.91 µM
GI50 [38]: 1.58 µM
TGI [38]: 3.42 µM
GI50 [39]: 1.68 µM
TGI [39]: 3.3 µM
GI50 [40]: 1.36 µM
TGI [40]: 2.74 µM
GI50 [41]: 1.49 µM
TGI [41]: 3.41 µM
GI50 [42]: 6.62 µM
TGI [42]: 20.4 µM
GI50 [43]: 1.66 µM
TGI [43]: 3.06 µM
GI50 [44]: 1.69 µM
TGI [44]: 3.31 µM
GI50 [45]: 0.536 µM
TGI [45]: 20.9 µM
GI50 [46]: 1.64 µM
TGI [46]: 3.06 µM
GI50 [47]: 1.83 µM
TGI [47]: 3.8 µM
GI50 [48]: 1.28 µM
TGI [48]: 2.69 µM
GI50 [49]: 1.66 µM
TGI [49]: 3.07 µM
GI50 [50]: 1.78 µM
TGI [50]: 3.35 µM
GI50 [51]: 1.77 µM
TGI [51]: 3.47 µM
GI50 [52]: 1.7 µM
TGI [52]: 3.17 µM
GI50 [53]: 1.6 µM
TGI [53]: 3.01 µM
GI50 [54]: 1.44 µM
TGI [54]: 2.82 µM
GI50 [55]: 1.71 µM
TGI [55]: 3.26 µM
GI50 [56]: 1.51 µM
TGI [56]: 2.91 µM

O=C(CN1CCN(c2cc3c(cc2F)c(=O)c(C(=O)O)cn3C2CC2)CC1)Nc1nc(-c2ccc(Cl)cc2)cs1
GI50 [1]: 3.43 µM
TGI [1]: 29.4 µM
GI50 [2]: 3.02 µM
TGI [2]: 45.8 µM
GI50 [3]: 2.96 µM
TGI [3]: > 100 µM
GI50 [4]: 3.15 µM
TGI [4]: 30.4 µM
GI50 [5]: 3.06 µM
TGI [5]: 36.1 µM
GI50 [6]: 3.12 µM
TGI [6]: 21 µM
GI50 [7]: 3.74 µM
TGI [7]: > 100 µM
GI50 [8]: 2.71 µM
TGI [8]: 6.29 µM
GI50 [9]: 3.21 µM
TGI [9]: > 100 µM
GI50 [10]: 5.17 µM
TGI [10]: > 100 µM
GI50 [11]: 4.28 µM
TGI [11]: > 100 µM
GI50 [12]: 3.58 µM
TGI [12]: > 100 µM
GI50 [13]: 2.73 µM
TGI [13]: 7.91 µM
GI50 [14]: 5.09 µM
TGI [14]: 61 µM
GI50 [57]: 3.94 µM
TGI [57]: 22.2 µM
GI50 [15]: 3.36 µM
TGI [15]: 29.9 µM
GI50 [16]: 3.93 µM
TGI [16]: > 100 µM
GI50 [17]: 2.76 µM
TGI [17]: 8.05 µM
GI50 [18]: 5.62 µM
TGI [18]: > 100 µM
GI50 [19]: 4.45 µM
TGI [19]: > 100 µM
GI50 [20]: 3.69 µM
TGI [20]: > 100 µM
GI50 [21]: 3.66 µM
TGI [21]: > 100 µM
GI50 [22]: 3.85 µM
TGI [22]: 94 µM
GI50 [23]: 8.66 µM
TGI [23]: > 100 µM
GI50 [24]: 4.16 µM
TGI [24]: > 100 µM
GI50 [25]: 3.19 µM
TGI [25]: 11.1 µM
GI50 [26]: 7.19 µM
TGI [26]: 73.7 µM
GI50 [27]: 4.71 µM
TGI [27]: > 100 µM
GI50 [58]: 3.58 µM
TGI [58]: 53.1 µM
GI50 [28]: 2.77 µM
TGI [28]: 29.6 µM
GI50 [29]: 6.64 µM
TGI [29]: 98.8 µM
GI50 [30]: 4.03 µM
TGI [30]: 28.4 µM
GI50 [31]: 5 µM
TGI [31]: > 100 µM
GI50 [32]: 3.05 µM
TGI [32]: > 100 µM
GI50 [33]: 4.54 µM
TGI [33]: 28.6 µM
GI50 [34]: 3.03 µM
TGI [34]: 12.7 µM
GI50 [35]: 3.69 µM
TGI [35]: > 100 µM
GI50 [36]: 3.37 µM
TGI [36]: > 100 µM
GI50 [37]: 4.39 µM
TGI [37]: > 100 µM
GI50 [38]: 3.31 µM
TGI [38]: > 100 µM
GI50 [39]: 7.91 µM
TGI [39]: > 100 µM
GI50 [40]: 3.71 µM
TGI [40]: > 100 µM
GI50 [41]: 2.95 µM
TGI [41]: > 100 µM
GI50 [42]: 3.24 µM
TGI [42]: 19.1 µM
GI50 [43]: 3.75 µM
TGI [43]: > 100 µM
GI50 [44]: 3.48 µM
TGI [44]: 16.7 µM
GI50 [46]: 3.39 µM
TGI [46]: 19 µM
GI50 [47]: 3.1 µM
TGI [47]: > 100 µM
GI50 [48]: 3.23 µM
TGI [48]: 23.7 µM
GI50 [49]: 3.51 µM
TGI [49]: 17.3 µM
GI50 [50]: 3.85 µM
TGI [50]: 60.3 µM
GI50 [51]: 4.82 µM
TGI [51]: > 100 µM
GI50 [52]: 3.26 µM
TGI [52]: > 100 µM
GI50 [53]: 3.57 µM
TGI [53]: > 100 µM
GI50 [54]: 4.72 µM
TGI [54]: > 100 µM
GI50 [55]: 4.19 µM
TGI [55]: > 100 µM
GI50 [56]: 4.24 µM
TGI [56]: > 100 µM
